Measured values reported in patent US9328078B2, “Benzofurazan anti-amyloid compounds and methods” (Treventis Corporation, priority 2012, dated 2016).
Several values for one entry are separate records, joined by “and”; a condition that tells them apart may be missing. Equal values may be shown once.

Target: Aβ40 (Homo sapiens, UniProt P05067)
Experiment: kinetic ThT assay for Aβ aggregation
Assay type: biochemical
Conditions: for inhibition at 5 µM: 80 h, read-out: % inhib Aβ 40 (5 μm); for inhibition at 20 µM: read-out: % inhib. A β 40 (20 μM); for inhibition at 10 µM: compound 10 μM, read-out: % inhib Aβ 40 10 μM; for IC50: ThT fluorescence, 20 μM Aβ, 37° C., up to 80 hr, parenthesis = compound 1027 in same experiment, read-out: IC50 A β 1-40
Description: Aβ40 (1.0 mg) was pre-treated in a 1.5 mL microfuge tube with HFIP (1 mL) and sonicated for 20 min to disassemble any pre-formed Aβ aggregates. The HFIP was removed with a stream of argon and the Aβ dissolved in Tris base (5.8 mL, 20 mM, pH˜10). The pH was adjusted to 7.4 with concentrated HCl (˜10 μL) and the solution filtered using a syringe filter (0.2 μm) before being used.
The kinetic ThT assay for AP aggregation is similar to that of Chalifour et al (Chalifour et al, 2003, J. Biol. Chem. 278:34874-81). Briefly, pre-treated Aβ40 or Aβ42 (40 μM in 20 mM Tris, pH 7.4) was diluted with an equal volume of 8 μM Thioflavin T (ThT) in Tris (20 mM, pH 7.4, 300 mM NaCl). Aliquots of Aβ/ThT (200 μL) were added to wells of a black polystyrene 96-well plate, followed by 2 μL of a compound in DMSO (variable concentration), or DMSO alone (controls). Incubations were performed in triplicate and were taken to contain 20 μM Aβ, various concentration of compound in 20 mM Tris, pH 7.4, 150 mM NaCl, 1% DMSO. Plates were covered with clear polystyrene lids and incubated at 37° C. in a Tecan Genios microplate reader.
Fluorescence readings (λex=450 nm, λem=480 nm) were taken every 15 min., after first shaking at high intensity for 15 s and allowing to settle for 10 s before each reading. Active compounds attenuated the increase in fluorescence over time that occurred in controls. In FIGS. 1-7, the time this procedure was performed extended to 80 hours (rightmost part of X-axis), at which point fluorescence increase generally reached an asymptote. Applying a definition of DMSO control at 80 hr as 100% aggregation (0% inhibition) and DMSO control at 0 hr as 0% aggregation (100% inhibition), a % inhibition score where higher is better can be calculated for a given concentration of compound. By repeating this procedure over several concentrations, a […] (IC50) can be measured, as is given in the table below for some compounds.
Data is summarized in the table below; numbers given in parenthesis are the values in that particular experiment for compound ID 1027, given as the first entry in this table for comparison.

[1] = compound 5 μm, DMSO control at 80 hr = 0% inhibition, parenthesis = compound 1027
[2] = compound 20 μM, DMSO control at 80 hr = 0% inhibition, parenthesis = compound 1027
[3] = DMSO control at 80 hr = 0% inhibition, parenthesis = compound 1027

Chain of Aβ40 (P05067 672-711 limits assumed, species assumed): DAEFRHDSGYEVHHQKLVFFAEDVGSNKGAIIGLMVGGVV

SMILES	inhibition at 5 µM [1]	inhibition at 20 µM [2]	inhibition at 10 µM [3]	further results
C#CCN(C)c1cc(-c2cccc(C(O)C(F)(F)F)c2)cc2nonc12 (stereo not drawn) [TRV-1404]	39%	69%		
COc1cc(CN(C)c2cc(-c3cccc(C(O)C(F)(F)F)c3)cc3nonc23)cc(OC)c1 (stereo not drawn) [TRV-1415]	52%	53%		
OC(c1cccc(-c2cc(N3CCCCC3)c3nonc3c2)c1)C(F)(F)F (stereo not drawn) [TRV-1381]	70.4%			
OC(c1cccc(-c2cc(N3CCSCC3)c3nonc3c2)c1)C(F)(F)F (stereo not drawn) [TRV-1385]	65.6%			
CC(=O)c1cccc(-c2cc(N3CCCC3)c3nonc3c2)c1 [TRV-1362]			41.4%	
CC1(O)CN(c2cc(-c3cccc(C(O)C(F)(F)F)c3)cc3nonc23)C1 (stereo not drawn) [TRV-1436]	48%		67%	
CC(O)c1cccc(-c2cc(N(C)Cc3ccccc3)c3nonc3c2)c1 (stereo not drawn) [TRV-1358]			72.7%	
CN(Cc1cccnc1)c1cc(-c2cccc(C(O)C(F)(F)F)c2)cc2nonc12 (stereo not drawn) [TRV-1413]	53%	61.3%		
COc1ccc(CN(C)c2cc(-c3cccc(C(O)C(F)(F)F)c3)cc3nonc23)cc1 (stereo not drawn) [TRV-1414]	53%	69%		
CN(Cc1ccc(F)cc1)c1cc(C(O)C(F)(F)F)cc2nonc12 (stereo not drawn) [TRV-1397]	38%	61%		
CC(O)c1cccc(-c2cc(N3CCC[C@H]3CO)c3nonc3c2)c1 (stereo partly drawn) [TRV-1359]			75.2%	
O=C(c1cccc(-c2cc(N3CCC3)c3nonc3c2)c1)N1CCOCC1 [TRV-1442]	29%		43%	
CC1CCCN1c1cc(-c2cccc(C(O)C(F)(F)F)c2)cc2nonc12 (mixture of isomers) [TRV-1379]				IC50: 1.65 µM
CC(O)c1cccc(-c2cc(N3CCCC3)c3nonc3c2)c1 (stereo not drawn) [TRV-1310]			81.5%	
CN(c1cc(-c2cccc(C(O)C(F)(F)F)c2)cc2nonc12)C1CC1 (stereo not drawn) [TRV-1405]	46%	76%		
OC(c1cccc(-c2cc(N3CCCC3)c3nonc3c2)c1)C(F)(F)F (stereo not drawn) [TRV-1361]			88.9%	
COC1CN(c2cc(-c3cccc(C(O)C(F)(F)F)c3)cc3nonc23)C1 (stereo not drawn) [TRV-1403]	51%	81%		
OC(c1cc(N2Cc3ccccc3C2)c2nonc2c1)C(F)(F)F (stereo not drawn) [TRV-1420]	44%	48%		
OCC1CN(c2cc(-c3cccc(C(O)C(F)(F)F)c3)cc3nonc23)C1 (stereo not drawn) [TRV-1428]			78%	
CN(Cc1ccccn1)c1cc(-c2cccc(C(O)C(F)(F)F)c2)cc2nonc12 (stereo not drawn) [TRV-1412]	51%	64%		
CN(Cc1ccccc1)c1cc(-c2cccc(C(O)C(F)(F)F)c2)cc2nonc12 (stereo not drawn) [TRV-1378]				IC50: 2.38 µM
OC(c1cccc(-c2cc(N3CCC3)c3nonc3c2)c1)C(F)(F)F (stereo not drawn) [TRV-1432]			51%	
OC(c1cccc(-c2cc(N3Cc4ccccc4C3)c3nonc3c2)c1)C(F)(F)F (stereo not drawn) [TRV-1401]	39%	58%		
CC(O)/C=C/c1cc(N(C)Cc2ccc(F)cc2)c2nonc2c1 (stereo not drawn) [TRV-1427]			41%	
OC(c1ccc(-c2cc(N3CCCC3)c3nonc3c2)cc1)C(F)(F)F (stereo not drawn) [TRV-1365]				IC50: 0.92 µM
OC(c1ccc(-c2cc(N3CCCC3)c3nonc3c2)s1)C(F)(F)F (stereo not drawn) [TRV-1364]				IC50: 1 µM

SMILES	inhibition at 5 µM [1]	inhibition at 20 µM [2]	inhibition at 10 µM [3]	further results
OC1CN(c2cc(-c3cccc(C(O)C(F)(F)F)c3)cc3nonc23)C1 (stereo not drawn) [TRV-1406]	53%	83%		
CN1CCN(c2cc(-c3cccc(C(O)C(F)(F)F)c3)cc3nonc23)CC1 (stereo not drawn) [TRV-1376]				IC50: 51.7 µM
CCN(C)c1cc(-c2cccc(C(O)C(F)(F)F)c2)cc2nonc12 (stereo not drawn) [TRV-1384]	72.4%			
COCCN(C)c1cc(-c2cccc(C(O)C(F)(F)F)c2)cc2nonc12 (stereo not drawn) [TRV-1383]	54.9%			
CC(O)c1cccc(-c2cc(NCc3ccccc3)c3nonc3c2)c1 (stereo not drawn) [TRV-1259]			66.3%	
O=C(NC1CC1)c1cccc(-c2cc(N3CCC3)c3nonc3c2)c1 [TRV-1441]	47%		64%	
OC(c1cccc(-c2cc(NCc3ccccc3)c3nonc3c2)c1)C(F)(F)F (stereo not drawn) [TRV-1380]	57.1%			
CC(C)OC1CN(c2cc(-c3cccc(C(O)C(F)(F)F)c3)cc3nonc23)C1 (stereo not drawn) [TRV-1447]	54%		70%	
CN(Cc1ccc(F)cc1)c1cc(/C=C/C(O)(C(F)(F)F)C(F)(F)F)cc2nonc12 [TRV-1400]	48%	80%		
CN(Cc1ccc(F)cc1)c1cc(/C=C/CO)cc2nonc12 [TRV-1409]	50%	69%		
OC(c1cc(N2CCCC2)c2nonc2c1)C(F)(F)F (stereo not drawn) [TRV-1368]			61.4%	
CN(Cc1ccc(F)cc1)c1cc(-c2cccc(C3(O)COC3)c2)cc2nonc12 [TRV-1446]	29%		50%	
OC(c1ccccc1-c1cc(N2CCCC2)c2nonc2c1)C(F)(F)F (stereo not drawn) [TRV-1366]				IC50: 3.03 µM
COC1CCN(c2cc(-c3cccc(C(O)C(F)(F)F)c3)cc3nonc23)C1 (stereo not drawn) [TRV-1411]	56%	81%		
CN(C)CCCN(C)c1cc(-c2cccc(C(O)C(F)(F)F)c2)cc2nonc12 (stereo not drawn) [compound 1463]	43.8%		62%	
CN(Cc1ccc(F)cc1)c1cc(C(=O)C(F)(F)F)cc2nonc12 [TRV-1417]	52%	75%		
O=C(c1cccc(-c2cc(N3CCC3)c3nonc3c2)c1)N1CCNCC1 [TRV-1440]	52%		60%	
O=C(c1ccccc1)N1CCN(c2ccc([N+](=O)[O-])c(Nc3ccccc3)c2)CC1 [compound 1027, reference compound]	33%	69%		IC50: 10.5 µM (3×) and 14.7 µM and 22.1 µM (3×); % inhib. A β 40 (20 μM) [2]: 52% and 53% and 51%; % inhib Aβ 40 (3 μm) (compound 3 μm, DMSO control at 80 hr = 0% inhibition, parenthesis = compound 1027): 26%; % inhib Aβ 40 (5 μm) [1]: 38% and 33% (3×)
CN(Cc1ccc(F)cc1)c1cc(-c2cccc(C(O)C(F)(F)F)c2)cc2nonc12 (stereo not drawn) [TRV-1390]	51%	75%		
CC(=O)c1cc(N(C)Cc2ccc(F)cc2)c2nonc2c1 [TRV-1418]	34%	55%		
CCN(CC)c1cc(-c2cccc(C(O)C(F)(F)F)c2)cc2nonc12 (stereo not drawn) [TRV-1382]	60%			
CN(Cc1ccccc1)c1cc(C(O)C(F)(F)F)cc2nonc12 (stereo not drawn) [TRV-1392]	36%	69%		
OC1(c2cc(N3Cc4ccccc4C3)c3nonc3c2)COC1 [TRV-1419]	48%	55%		
CC(C)N(C)c1cc(-c2cccc(C(O)C(F)(F)F)c2)cc2nonc12 (stereo not drawn) [TRV-1377]				IC50: 1.86 µM
OC(c1cccc(-c2cc(N3CCOCC3)c3nonc3c2)c1)C(F)(F)F (stereo not drawn) [TRV-1360]			58.9%	
CCOC1CN(c2cc(-c3cccc(C(O)C(F)(F)F)c3)cc3nonc23)C1 (stereo not drawn) [TRV-1437]	44%		50%	
